# In the supplement of paper PMC10307832:
# How the values were obtained:
# Assay in all cases: relative viability (nuclei count vs DMSO), 5 days (fraction); higher = more cells survive
# [1] = compound: CCN(CCO)CCCC(C)Nc1ccnc2cc(Cl)ccc12 [Hydroxychloroquine] + CC(=O)Nc1cccc(-n2c(=O)n(C3CC3)c(=O)c3c(Nc4ccc(I)cc4F)n(C)c(=O)c(C)c32)c1 [Trametinib] (partner 0.02 µM)
# Summary of the method: (§1)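 A single step with final 0.05% Triton X-100, 1% formaldehyde and 1 ug/ml Hoechst fixed the cells and stained nuclei 5 days after treatment. Lung cancer cell lines in 1536-well plates had been treated by pin tool the day after seeding with one drug alone or a fixed anchor-drug dose plus five library-drug doses (not always all listed) in √10 steps, and nuclei were counted on 4× images. Relative viability is the ratio of nuclei in treated wells to nuclei in vehicle wells, taken as the median of duplicate plates.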
# [2] = compound: CCN(CCO)CCCC(C)Nc1ccnc2cc(Cl)ccc12 [Hydroxychloroquine] + C[C@@H](Oc1cc(-c2cnn(C3CCNCC3)c2)cnc1N)c1c(Cl)ccc(F)c1Cl [Crizotinib] (partner 1 µM)
# Summary of the method: as §1
# [3] = compound: CCN(CCO)CCCC(C)Nc1ccnc2cc(Cl)ccc12 [Hydroxychloroquine] + N=C(N)NC(=N)NCCc1ccccc1 [Phenformin] (partner 250 µM)
# Summary of the method: as §1
# [4] = compound: CCN(CCO)CCCC(C)Nc1ccnc2cc(Cl)ccc12 [Hydroxychloroquine] + COc1cccc2cc(-c3nc([C@H]4CC[C@H](C(=O)O)CC4)n4ncnc(N)c34)[nH]c12 [OSI-027] (partner 0.5 µM)
# Summary of the method: as §1
Cell Line,relative viability ([1]; first compound 0.5 µM),relative viability ([1]; first compound 1.581 µM),relative viability ([1]; first compound 5 µM),relative viability ([1]; first compound 15.81 µM),relative viability ([1]; first compound 50 µM),relative viability ([2]; first compound 0.5 µM),relative viability ([2]; first compound 1.581 µM),relative viability ([2]; first compound 5 µM),relative viability ([2]; first compound 15.81 µM),relative viability ([2]; first compound 50 µM),relative viability ([3]; first compound 0.5 µM),relative viability ([3]; first compound 1.581 µM),relative viability ([3]; first compound 5 µM),relative viability ([3]; first compound 15.81 µM),relative viability ([3]; first compound 50 µM),relative viability ([4]; first compound 0.5 µM),relative viability ([4]; first compound 1.581 µM),relative viability ([4]; first compound 5 µM),relative viability ([4]; first compound 15.81 µM),relative viability ([4]; first compound 50 µM)
NCI-H322M,0.497,0.6,0.511,0.511,0.537,0.996,0.922,0.894,0.927,1.02,0.704,0.799,0.786,0.743,0.744,0.557,0.535,0.634,0.519,0.609
NCI-H358,0.128,0.122,0.132,0.131,0.127,0.515,0.579,0.587,0.516,0.591,0.345,0.284,0.314,0.32,0.323,0.666,0.616,0.783,0.83,0.991
NCI-H441,0.467,0.39,0.386,0.349,0.462,0.624,0.824,0.92,0.734,0.663,0.922,0.726,0.815,0.94,0.944,0.749,0.443,0.579,0.669,0.584
NCI-H460,0.203,0.11,0.119,0.187,0.13,0.985,0.91,0.938,0.745,0.952,0.506,0.533,0.577,0.518,0.635,0.621,0.649,0.569,0.672,0.847
NCI-H520,0.692,0.658,0.589,0.628,0.844,0.894,0.826,0.86,0.752,0.993,0.539,0.403,0.649,0.683,0.628,0.301,0.22,0.285,0.324,0.268
NCI-H596,0.652,0.926,0.769,0.797,0.795,0.918,1.04,1.05,1.05,1.01,0.69,0.66,0.784,0.835,0.908,0.755,0.672,0.625,0.761,0.883
NCI-H647,0.474,0.494,0.438,0.497,0.519,1.23,1.07,1.21,1.12,1.33,0.503,0.556,0.441,0.63,0.661,0.703,0.737,0.683,0.893,0.607
NCI-H650,0.877,0.876,0.965,1.03,0.969,0.787,0.63,–,0.675,0.835,0.479,0.438,0.413,0.455,0.473,0.566,0.557,0.61,0.555,0.545
NCI-H661,0.549,0.522,0.593,0.596,0.577,0.939,0.962,1.05,0.927,1.09,0.275,0.259,0.3,0.243,0.254,0.668,0.52,0.629,0.583,0.697
NCI-H727,0.369,0.361,0.396,0.405,0.382,0.839,0.815,0.804,0.908,0.885,0.514,0.424,0.407,0.618,0.532,0.672,0.639,0.796,0.555,0.632
NCI-H838,0.566,0.458,0.552,0.519,0.606,0.805,0.8,0.823,0.829,0.974,0.636,0.561,0.548,0.595,0.613,0.421,0.392,0.37,0.406,0.401
NCI-H1355,0.374,0.413,0.435,0.376,0.388,1.08,1.01,1.11,1.08,1.1,0.431,0.408,0.457,0.442,0.425,0.509,0.301,0.371,0.332,0.44
NCI-H1437,0.543,0.579,0.515,0.459,0.544,0.824,0.985,0.963,0.97,1.03,0.304,0.316,0.31,0.297,0.31,0.813,1.02,0.859,0.949,0.909
NCI-H1650,0.556,0.681,0.515,0.591,0.494,0.92,0.903,0.999,1.01,1.04,0.473,0.507,0.404,0.402,0.303,0.653,0.729,0.634,0.562,0.577
NCI-H1651,0.832,0.894,0.834,0.864,0.879,0.926,0.884,0.83,0.853,0.911,0.358,0.346,0.297,0.356,0.325,0.659,0.69,0.677,0.786,0.781
NCI-H1666,0.789,0.786,0.848,0.812,0.794,0.872,1.11,0.948,0.837,1.14,0.601,0.551,0.586,0.562,0.554,0.816,0.81,0.834,0.82,0.808
